Results taken from patent US20020055495A1, “Two-component anti-emetic composition” (priority 2000, published 2002).
Where two headings read alike, the source gives them in different places.

Columns and labels:
male Spargue-Dawley rats = assay: locomotor depressant effect in rats (center distance traveled, Digiscan activity monitors); assay type: in vivo, rat; conditions: metaclopramide 4 mg/kg s.c., rats pretreated with saline, 30 minutes recording
Description: In this example, the effect of the addition of a steroid, such as dexamethasone, on metoclopramide's locomotor depressant effects is studied. Forty-eight male Spargue-Dawley rats (250-350 g) are used for this experiment. The rats are housed in pairs and allowed free access to food and water and are not handled except for cage changes and weighing prior to testing. All experimental procedures are performed during the rat's nocturnal cycle, in dimly lit behavior rooms, except that the rats are moved to adjacent behavior rooms 30 minutes prior to testing. Eight rats are tested at a time, four rats from each condition are tested together and groups are randomly chosen to control for order sequence effects. The locomotor experiments are carried out in clear, acrylic 41×41×30 cm test chambers inside Ominitech Digiscan activity monitors (Accuscan, Inc.). Each monitor uses two arrays of infrared photocell beams (8×8 photocells, model RXYZCM-8) to detect several parameters of the rat's movement both horizontally and vertically. Data is collected in 5-min bins during testing. Dexamethasone (Sigma) is dissolved in deionized water at concentrations of 0.16, 0.4, 0.8, and 4 mg/ml. […] Each rat is then immediately placed into a locomotor testing box and the data is recorded for 30 minutes (5-min bins). The data is analyzed with a one way ANOVA for the dependent variable, center distance traveled. […]

[1] = cited from earlier work
dopamine D2 receptor = dopamine D2 receptor (Homo sapiens, UniProt P14416); assay: dopamine D2 receptor binding, metoclopramide alone and with dexamethasone added
Description: Metoclopramide is an inhibitor of the dopamine D2 receptor which negatively effects motor function through D2 blockade causing extrapyramidal signs and symptoms (EPS). The effect of the addition of a steroid, such as dexamethasone, on metoclopramide's binding affinity at the dopamine D2 receptor is studied. […] Dexamethasone is then added in relative concentrations based on weight to achieve the following results: […]

nausea and emesis = conditions: cited from earlier work

Sequence of dopamine D2 receptor (P14416 whole entry, species assumed): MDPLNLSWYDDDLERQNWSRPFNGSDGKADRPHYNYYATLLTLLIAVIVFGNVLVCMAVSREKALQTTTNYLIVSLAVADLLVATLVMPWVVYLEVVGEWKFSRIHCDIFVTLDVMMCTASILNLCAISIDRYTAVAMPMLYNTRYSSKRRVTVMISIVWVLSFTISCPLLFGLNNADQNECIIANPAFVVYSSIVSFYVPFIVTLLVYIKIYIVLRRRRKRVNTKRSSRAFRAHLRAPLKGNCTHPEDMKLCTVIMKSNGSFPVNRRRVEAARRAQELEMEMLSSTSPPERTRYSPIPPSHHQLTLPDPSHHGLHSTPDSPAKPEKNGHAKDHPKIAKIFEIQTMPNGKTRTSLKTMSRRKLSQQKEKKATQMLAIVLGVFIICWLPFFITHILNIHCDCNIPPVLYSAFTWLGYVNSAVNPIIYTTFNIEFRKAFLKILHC

CCN(CC)CCNC(=O)c1cc(Cl)c(N)cc1OC [metoclopramide]
center distance traveled (locomotor depressant effect) (male Spargue-Dawley rats): significantly reduces
solubility in aqueous solution ([1]; acid addition salt form): freely soluble in aqueous solution
solubility in water ([1]; free base form): quite water insoluble
% Inhibition D2 Binding (dopamine D2 receptor; MTC 8.6 nM, alone or with DEX (0.7-17.2 nM) added at the stated DEX:MTC weight ratio): 50%
IC50 (dopamine D2 receptor; metoclopramide alone, read-out: IC50 (the concentration that inhibits 50% of dopamine D2 binding)): 8.6 nM

Cc1nccn1CC1CCc2c(c3ccccc3n2C)C1=O (stereo not shown) [ondansetron]
anti-emetic efficacy (nausea and emesis; Soukop et al. 1992, repeated chemotherapy for breast cancer): significantly superior than MTC

CN1C2CCCC1CC(NC(=O)c1nn(C)c3ccccc13)C2 (stereo not shown) [oral granisetron, granisetron]
anti-emetic efficacy (nausea and emesis; Heron et al. 1994, Chevallier 1993, cisplatin-induced emesis): superior to MTC
